Key:
Tau-BiFC cells = experiment: Cell viability (cytotoxicity) in tau-BiFC cells, count of stained nuclei; type: cell-based; conditions: compound 10 μM; Forskolin-only group = 100% cell viability
Outline: (§1)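 Tau-BiFC cells were exposed for 48 h to compound (1, 3, 10 μM for screening; 0.03–30 μM for dose-response) plus 30 μM Forskolin to induce aggregation. BiFC fluorescence was normalised to Forskolin-only minus untreated controls, with IC50 from nonlinear regression. Viability was Hoechst-stained nuclei counts relative to Forskolin-only wells.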

[1] = Liver microsome stability; type: in vitro ADME, mouse; conditions: amount of substrate remaining; compound 1 μM, 30 minutes, 37° C., NADPH
Outline: (§2)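 Human, dog, rat and mouse liver microsomes (0.25 mg/mL) with 1 μM compound in 0.1 M phosphate buffer pH 7.4, preincubated 5 min at 37° C, then incubated 30 min at 37° C with NADPH-generating system. Reaction stopped with acetonitrile containing internal standard; remaining parent quantified by LC-MS/MS.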

tau protein = biological target: T1, tau protein (Homo sapiens, UniProt P10636); experiment: Tau-BiFC cell model: inhibition of tau protein aggregation; type: cell-based; conditions: for remaining activity at 10 µM: 48 h, compound 10 μM, BiFC fluorescence, Forskolin-only group = 100% tau protein-aggregated state, read-out: Response (% @10 μM); for IC50: Tau BiFC in cells, with Forskolin 30 μM, 48 hours
T1 construct: fused on or other part: Split fluorescent-protein halves for BiFC are fused to tau; In the published tau-BiFC line these are Venus VN173 and VC155
T1 sequence (P10636 2-441 isoform P10636-8 limits assumed): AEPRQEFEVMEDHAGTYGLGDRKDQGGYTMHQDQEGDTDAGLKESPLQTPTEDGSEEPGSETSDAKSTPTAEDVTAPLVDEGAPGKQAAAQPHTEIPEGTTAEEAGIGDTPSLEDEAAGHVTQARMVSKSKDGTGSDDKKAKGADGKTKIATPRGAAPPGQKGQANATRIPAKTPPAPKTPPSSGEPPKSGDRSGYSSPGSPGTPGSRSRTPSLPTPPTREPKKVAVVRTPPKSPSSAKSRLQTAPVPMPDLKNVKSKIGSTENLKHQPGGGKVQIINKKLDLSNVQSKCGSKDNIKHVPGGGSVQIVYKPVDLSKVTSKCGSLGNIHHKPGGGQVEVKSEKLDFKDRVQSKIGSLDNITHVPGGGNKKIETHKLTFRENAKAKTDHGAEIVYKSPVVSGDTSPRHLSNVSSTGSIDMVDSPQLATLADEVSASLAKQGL
Outline: as §1

[2] = Liver microsome stability; type: in vitro ADME, human; conditions: amount of substrate remaining; compound 1 μM, 30 minutes, 37° C., NADPH
Outline: as §2

[3] = Liver microsome stability; type: in vitro ADME, dog; conditions: amount of substrate remaining; compound 1 μM, 30 minutes, 37° C., NADPH
Experimental: The stability of liver microsomes due to the compounds prepared according to Examples 1 to 175 was confirmed. Specifically, four types of liver microsomes (human, dog, rat, and mouse, each 0.25 mg/mL), a 0.1 M phosphate buffer solution (pH 7.4), and each of the compounds at a concentration of 1 μM were mixed and pre-cultured at 37° C. for 5 minutes and further cultured at 37° C. for 30 minutes together with an NADPH generation system solution added thereto. Thereafter, the reaction was terminated by adding an acetonitrile solution containing an internal standard material (chloropropamide) and centrifuged for 5 minutes (14,000 rpm, 4° C.), and then a supernatant was injected into an LC-MS/MS system for analysis of substrate drugs to thereby evaluate metabolic stability due to 8 types of compounds.
The amount of the substrate remaining after the reaction was analyzed using the Shimadzu Nexera XR system and TSQ Vantage (Thermo). In an HPLC column, Kinetex XB-C18 (2.1 mm×100 mm, particle size of 2.6 μm; Phenomenex, USA) was used, and mobile phases were (A) distilled water containing 0.1% formic acid and (B) acetonitrile containing 0.1% formic acid. Analyst software (version 1.6.3) and Xcalibur (version 1.6.1) were used for data analysis.

CYP3A4 = biological target: T2, CYP3A4 (Homo sapiens, UniProt P08684); experiment: Inhibitory effect on CYP coenzyme activity, human liver microsomes; type: in vitro ADME; conditions: compound 10 μM; human liver microsomes 0.25 mg/mL; substrate midazolam; 15 minutes
T2 construct: human liver microsomes (0.25 mg/mL); from tissue; host or cells: human liver microsomes
T2 sequence (P08684 whole entry): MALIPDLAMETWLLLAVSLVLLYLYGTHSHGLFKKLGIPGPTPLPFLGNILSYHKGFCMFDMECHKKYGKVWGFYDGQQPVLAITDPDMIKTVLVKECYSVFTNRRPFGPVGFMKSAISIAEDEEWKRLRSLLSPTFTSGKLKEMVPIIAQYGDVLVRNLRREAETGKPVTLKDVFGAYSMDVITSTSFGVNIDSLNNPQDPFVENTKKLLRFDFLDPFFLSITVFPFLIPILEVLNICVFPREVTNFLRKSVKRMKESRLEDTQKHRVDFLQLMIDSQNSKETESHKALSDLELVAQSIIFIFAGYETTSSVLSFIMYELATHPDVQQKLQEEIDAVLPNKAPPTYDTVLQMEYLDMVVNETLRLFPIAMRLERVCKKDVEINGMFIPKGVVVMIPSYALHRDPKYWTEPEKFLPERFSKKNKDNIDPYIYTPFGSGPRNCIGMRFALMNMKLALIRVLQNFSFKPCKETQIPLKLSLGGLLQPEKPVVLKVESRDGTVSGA
Experimental: (§3) The inhibitory effects of the compounds prepared according to Examples 1 to 175 on CYP coenzyme activity were identified. Specifically, human liver microsomes (0.25 mg/mL), a 0.1 M phosphate buffer solution (pH 7.4), a substrate drug cocktail of five types of drug metabolism enzymes (50 μM phenacetin, 10 μM diclofenac, 100 μM S-mephenytoin, 5 μM dextromethorphan, and 2.5 μM midazolam), and the compound at a concentration of 0 μM or 10 μM were mixed and pre-cultured at 37° C. for 5 minutes, and then further cultured at 37° C. for 15 minutes together with an NADPH generation system solution added thereto. Thereafter, the reaction was terminated by adding an acetonitrile solution containing an internal standard material (terfenadine) and centrifuged for 5 minutes (14,000 rpm, 4° C.), and then a supernatant was injected into an LC-MS/MS system for simultaneous analysis of metabolites of the substrate drugs to thereby evaluate the inhibitory effects on drug metabolism.
(§4) Metabolites of each CYP coenzyme indicator drug generated through the reaction were analyzed using the Shimadzu Nexera XR system and TSQ Vantage (Thermo). In an HPLC column, Kinetex C18 (2.1 mm×100 mm, 2.6 μm, particle size; Phenomenex, USA) was used, and mobile phases were (A) distilled water containing 0.1% formic acid and (B) acetonitrile containing 0.1% formic acid, and a gradient program shown in Table 3 was applied thereto.
(§5) The generated metabolites were quantified using a multiple reaction monitoring (MRM) quantification mode, and Xcalibur (version 1.6.1) was used for data analysis. Inhibitory effects of the novel compound prepared according to the examples of the present invention on CYP coenzyme activity are shown in Table 4 below.

CYP1A2 = biological target: T3, CYP1A2 (Homo sapiens, UniProt P05177); experiment: as above; type: in vitro ADME; conditions: compound 10 μM; human liver microsomes 0.25 mg/mL; substrate phenacetin; 15 minutes
T3 construct: human liver microsomes (0.25 mg/mL); from tissue; host or cells: human liver microsomes
T3 sequence (P05177 1-516): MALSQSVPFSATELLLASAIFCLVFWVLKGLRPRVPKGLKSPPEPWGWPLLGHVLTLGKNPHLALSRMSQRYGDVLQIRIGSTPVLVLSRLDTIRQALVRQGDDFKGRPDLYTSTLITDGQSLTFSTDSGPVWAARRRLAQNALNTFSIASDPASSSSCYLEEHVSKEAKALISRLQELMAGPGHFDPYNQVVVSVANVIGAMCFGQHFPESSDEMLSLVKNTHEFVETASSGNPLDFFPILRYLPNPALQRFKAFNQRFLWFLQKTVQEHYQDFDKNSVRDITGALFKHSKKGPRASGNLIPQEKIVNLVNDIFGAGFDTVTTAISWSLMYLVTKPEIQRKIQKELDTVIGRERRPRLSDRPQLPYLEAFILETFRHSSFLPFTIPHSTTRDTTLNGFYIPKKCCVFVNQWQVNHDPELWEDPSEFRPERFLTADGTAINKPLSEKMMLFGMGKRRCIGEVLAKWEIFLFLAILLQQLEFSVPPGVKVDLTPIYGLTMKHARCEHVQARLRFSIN
Experimental: as §3, §4, §5

CYP2D6 = biological target: T4, CYP2D6 (Homo sapiens, UniProt P10635); experiment: as above; type: in vitro ADME; conditions: compound 10 μM; human liver microsomes 0.25 mg/mL; substrate dextromethorphan; 15 minutes
T4 construct: human liver microsomes (0.25 mg/mL); from tissue; host or cells: human liver microsomes
T4 sequence (P10635 whole entry): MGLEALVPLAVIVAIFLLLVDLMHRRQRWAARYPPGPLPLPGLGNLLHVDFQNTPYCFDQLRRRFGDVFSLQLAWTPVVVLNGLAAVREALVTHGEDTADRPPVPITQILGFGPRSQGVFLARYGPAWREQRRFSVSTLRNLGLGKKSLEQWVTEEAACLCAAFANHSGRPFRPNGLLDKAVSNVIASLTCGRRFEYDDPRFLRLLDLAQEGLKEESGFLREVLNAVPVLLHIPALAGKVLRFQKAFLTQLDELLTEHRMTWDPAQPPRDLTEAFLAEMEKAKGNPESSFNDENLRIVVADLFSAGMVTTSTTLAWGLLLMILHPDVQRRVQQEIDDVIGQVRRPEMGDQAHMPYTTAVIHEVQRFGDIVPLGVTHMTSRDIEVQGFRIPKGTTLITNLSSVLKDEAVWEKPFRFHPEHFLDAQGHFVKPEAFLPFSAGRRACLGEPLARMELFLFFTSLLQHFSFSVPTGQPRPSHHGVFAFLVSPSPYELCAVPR
Experimental: as §3, §4, §5

CYP2C19 = biological target: T5, CYP2C19 (Homo sapiens, UniProt P33261); experiment: as above; type: in vitro ADME; conditions: compound 10 μM; human liver microsomes 0.25 mg/mL; substrate S-mephenytoin; 15 minutes
T5 construct: human liver microsomes (0.25 mg/mL); from tissue; host or cells: human liver microsomes
T5 sequence (P33261 whole entry): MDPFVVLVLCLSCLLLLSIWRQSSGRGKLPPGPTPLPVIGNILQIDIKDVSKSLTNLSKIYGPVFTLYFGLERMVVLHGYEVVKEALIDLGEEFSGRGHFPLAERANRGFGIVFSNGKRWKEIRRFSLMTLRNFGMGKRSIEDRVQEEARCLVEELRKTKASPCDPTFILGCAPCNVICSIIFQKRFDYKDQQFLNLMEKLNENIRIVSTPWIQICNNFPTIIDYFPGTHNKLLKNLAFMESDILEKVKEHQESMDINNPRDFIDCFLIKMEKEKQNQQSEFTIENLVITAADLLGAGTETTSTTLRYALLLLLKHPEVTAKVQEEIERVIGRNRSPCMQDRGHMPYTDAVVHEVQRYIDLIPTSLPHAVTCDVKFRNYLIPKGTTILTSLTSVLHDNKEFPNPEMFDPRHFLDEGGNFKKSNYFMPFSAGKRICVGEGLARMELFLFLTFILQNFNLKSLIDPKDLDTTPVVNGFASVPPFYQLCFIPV
Experimental: as §3, §4, §5

CYP2C9 = biological target: T6, CYP2C9 (Homo sapiens, UniProt P11712); experiment: as above; type: in vitro ADME; conditions: compound 10 μM; human liver microsomes 0.25 mg/mL; substrate diclofenac; 15 minutes
T6 construct: human liver microsomes (0.25 mg/mL); from tissue; host or cells: human liver microsomes
T6 sequence (P11712 whole entry): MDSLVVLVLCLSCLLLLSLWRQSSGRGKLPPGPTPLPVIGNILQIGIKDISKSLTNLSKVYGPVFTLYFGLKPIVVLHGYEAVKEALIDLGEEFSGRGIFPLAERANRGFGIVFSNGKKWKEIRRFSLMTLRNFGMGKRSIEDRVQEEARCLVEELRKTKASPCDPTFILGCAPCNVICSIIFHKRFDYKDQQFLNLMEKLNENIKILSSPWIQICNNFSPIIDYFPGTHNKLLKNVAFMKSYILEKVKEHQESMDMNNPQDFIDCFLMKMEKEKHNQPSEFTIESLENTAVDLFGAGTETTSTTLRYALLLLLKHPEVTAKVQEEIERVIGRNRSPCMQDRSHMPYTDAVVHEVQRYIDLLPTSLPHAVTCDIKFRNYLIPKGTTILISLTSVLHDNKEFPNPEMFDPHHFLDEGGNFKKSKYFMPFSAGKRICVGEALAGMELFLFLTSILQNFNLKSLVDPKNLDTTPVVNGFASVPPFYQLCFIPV
Experimental: as §3, §4, §5

[4] = Liver microsome stability; type: in vitro ADME, rat; conditions: amount of substrate remaining; compound 1 μM, 30 minutes, 37° C., NADPH
Outline: as §2

Row | SMILES | Cell viability (% @10 μM) (Tau-BiFC cells) [%] | Mouse (%) [1] [%] | remaining activity at 10 µM (tau protein) [%] | IC50 (tau protein) [nM] | Human (%) [2] [%] | Dog (%) [3] [%] | CYP3A4 (CYP3A4) | CYP1A2 (CYP1A2) | CYP2D6 (CYP2D6) | CYP2C19 (CYP2C19) | CYP2C9 (CYP2C9) | Rat (%) [4] [%]
1 | Cc1cnc(C(=O)Nc2ccc(NN=C(C#N)C#N)c(F)c2)cn1 [Compound 3, (2-fluoro-4-(5-methylpyrazine-2-carboxamido)phenyl)carbonohydrazonoyl dicyanide] | 62.1 | 46.1 | 0 | 30 | 95.7 | 75.4 | 80.8 | 85.6 | 83.6 | 78.2 | 61.9 | 72.6
2 | Cc1cnc(C(=O)Nc2ccc(NN=C(C#N)C#N)c(C)c2)cn1 [Compound 6, (2-methyl-4-(5-methylpyrazine-2-carboxamido)phenyl)carbonohydrazonoyl dicyanide] | 61.3 | 74.8 | 43.9 |  | 77.5 | >100 | 62.2 | 85.2 | 75.7 | 64.8 | 38 | 88.4
3 | N#CC(C#N)=NNc1ccc(NC(=O)c2ccc(F)cc2)nc1 [Compound 16, (6-(4-fluorobenzamido)pyridin-3-yl)carbonohydrazonoyl dicyanide] | 66.2 | 67.3 | 0 | 110 | 91.6 | 59.5 | 86.9 | 71.4 | 80.8 | 78.6 | 40.3 | 61
4 | Cc1cc(F)cc(C(=O)Nc2ccc(NN=C(C#N)C#N)cn2)c1 [Compound 19, (6-(3-fluoro-5-methylbenzamido)pyridin-3-yl)carbonohydrazonoyl dicyanide] | 119.1 | 62.3 | 0 | 270 | 84.8 | 78.8 | 76.5 | 55.1 | 73 | 73.1 | 14.6 | 51.4
5 | Cc1cccc(C(=O)Nc2ccc(NN=C(C#N)C#N)cn2)c1F [Compound 20, (6-(2-fluoro-3-methylbenzamido)pyridin-3-yl)carbonohydrazonoyl dicyanide] | 110.4 | 68.3 | 0 | 180 | 91.9 | >100 | 76.1 | 69.4 | 75.8 | 72 | 22.3 | 33.7
6 | N#CC(C#N)=NNc1ccc(NC(=O)c2ccc(C(F)(F)F)cc2)nc1 [Compound 27, (6-(4-(trifluoromethyl)benzamido)pyridin-3-yl)carbonohydrazonoyl dicyanide] | 122 | 5.4 | 0 | 370 | 86.9 | 3.6 | >100 | 76.8 | 76 | 78.3 | 23.7 | 8.8
7 | N#CC(C#N)=NNc1ccc(NC(=O)c2cccs2)nc1 [Compound 30, (6-(thiophene-2-carboxamido)pyridin-3-yl)carbonohydrazonoyl dicyanide] | 145 | 70.7 | 0 | 80 | 94.8 | 84.7 | 95.2 | 83.9 | 89.9 | 81.5 | 62.9 | 72.4
8 | Cc1ccc(NC(=O)c2ccc(NN=C(C#N)C#N)cn2)cn1 [Compound 38, (6-(6-methylpyridin-3-ylcarbamoyl)pyridin-3-yl)carbonohydrazonoyl dicyanide] | 110.6 | 96.4 | 0 | 990 | 99.1 | 98.8 | 92.4 | 92.5 | >100 | 83.0 | 49.1 | >100
9 | Cc1cnc(NC(=O)c2ccc(NN=C(C#N)C#N)cc2)cn1 [Compound 45, (4-(5-methylpyrazin-2-ylcarbamoyl)phenyl)carbonohydrazonoyl dicyanide] | 140.5 | >100 | 0 | 1180 | 96.8 | >100 | 96.7 | 95.5 | >100 | 83.4 | 80.8 | >100
10 | Cc1cncc(NC(=O)c2ccc(NN=C(C#N)C#N)cc2)n1 [Compound 46, (4-(6-methylpyrazin-2-ylcarbamoyl)phenyl)carbonohydrazonoyl dicyanide] | 155 | >100 | 0 | 860 | >100 | >100 | 85.5 | 97.8 | >100 | 83.1 | 70.4 | 86.3

— patent US12649723B2, “Carbonohydrazonoyl dicyanide compounds comprising 2 or more aryl or heteroaryl connected via linker and use thereof” (KOREA INSTITUTE OF SCIENCE AND TECHNOLOGY, priority 2020, dated 2026)
